Assay results taken from patent US8759537B2, “3H-imidazo [4, 5-C] pyridine-6-carboxamides as anti-inflammatory agents” (Boehringer Ingelheim International GmbH, priority 2010, dated 2014).

What follows are molecules tested against mPGES-1 (Homo sapiens (Human), UniProt O14684) (assay: A549 cell-based assay (PGE2 formation, IL-1β stimulated, 50% human serum)). Conditions: A549 cells, IL-1β 5 ng/ml, read-out: mPGES-1 inhibitory effect in the cell assay, IC50.
Procedure: Although the enzymatic assay is a high throughput assay the disadvantage is that it uses a recombinant protein which is not in its natural environment. Accordingly a cellular assay was established in which a cell line of human origin (A549) expressing the mPGES-1 protein was used. In addition in order to mimic the situation in humans in which compounds can be bound to plasma proteins 50% human serum is added in the assay.
Cells were detached using Trypsin-EDTA. A549 cells were seeded in a 384-well collagene plate at a density of 7000 cells/well (50 μl) in F-12 medium containing 1% Penicillin-Streptomycin and 50% human serum. The cells were allowed to attach for 3-4 h. […] The total volume is 100 μl.
Concentrations of PGE2 in the cell free medium (10 μl) were measured using a commercially available HTRF kit from Cisbio (as described above). The PGE2 formation in the absence of test compound was taken as 100%.
IC50 values were derived from at 6-8 point titrations using conventional software.

mPGES-1, sequence (O14684 whole entry): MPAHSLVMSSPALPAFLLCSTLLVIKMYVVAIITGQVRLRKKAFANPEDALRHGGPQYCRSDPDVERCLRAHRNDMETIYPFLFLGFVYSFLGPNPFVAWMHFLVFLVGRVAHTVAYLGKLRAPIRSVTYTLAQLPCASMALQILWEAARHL

| IC50 [nM] | SMILES |
| --- | --- |
| 26 | Cn1c(Nc2c(Cl)ccc(CNC(=O)CC(F)(F)F)c2Cl)nc2cc(C(=O)NCC(F)(F)F)c(OCC(F)F)cc21 [Example 128] |
| 3 | COC(C)(C)C(=O)NCc1ccc(Cl)c(Nc2nc3cc(C(=O)NCC(F)(F)F)c(OCC(F)F)cc3n2C)c1Cl [Example 130] |
| 1 | Cn1c(Nc2c(Cl)ccc(CNC(=O)CC(F)(F)F)c2Cl)nc2cc(C(=O)Nc3ccc(F)c(Cl)c3)c(OCC(F)F)cc21 [Example 131] |
| 2 | CCCC(=O)NCc1ccc(Cl)c(Nc2nc3cc(C(=O)Nc4ccc(F)c(Cl)c4)c(OCC(F)F)cc3n2C)c1Cl [Example 132] |
| 1 | Cn1c(Nc2c(Cl)ccc(CNC(=O)C3(C)CC3)c2Cl)nc2cc(C(=O)Nc3ccc(F)c(Cl)c3)c(OCC(F)F)cc21 [Example 133] |
| 8 | Cn1c(Nc2c(Cl)ccc(CNC(=O)c3cc[nH]n3)c2Cl)nc2cc(C(=O)Nc3ccc(F)c(Cl)c3)c(OCC(F)F)cc21 [Example 134] |
| < 1 | COC(C)(C)C(=O)NCc1ccc(Cl)c(Nc2nc3cc(C(=O)Nc4ccc(F)c(Cl)c4)c(OCC(F)F)cc3n2C)c1Cl [Example 135] |
| 17 | Cn1c(Nc2c(Cl)ccc(CNC(=O)c3cc(C(F)(F)F)n[nH]3)c2Cl)nc2cc(C(=O)Nc3ccc(F)c(Cl)c3)c(OCC(F)F)cc21 [Example 136] |
| 4 | Cn1c(Nc2c(Cl)ccc(CNC(=O)C3CCCO3)c2Cl)nc2cc(C(=O)Nc3ccc(F)c(Cl)c3)c(OCC(F)F)cc21 (stereo not drawn) [Example 137] |
| 49 | Cc1nc(C)c(C(=O)NCc2ccc(Cl)c(Nc3nc4cc(C(=O)Nc5ccc(F)c(Cl)c5)c(OCC(F)F)cc4n3C)c2Cl)s1 [Example 138] |
| 27 | Cn1c(Nc2c(Cl)ccc(CNC(=O)CO)c2Cl)nc2cc(C(=O)Nc3ccc(F)c(Cl)c3)c(OCC(F)F)cc21 [Example 139] |
| < 1 | CC(C(=O)NCc1ccc(Cl)c(Nc2nc3cc(C(=O)Nc4ccc(F)c(Cl)c4)c(OCC(F)F)cc3n2C)c1Cl)C(F)(F)F (stereo not drawn) [Example 141] |
| 2.5 | Cn1cccc1C(=O)NCc1ccc(Cl)c(Nc2nc3cc(C(=O)Nc4ccc(F)c(Cl)c4)c(OCC(F)F)cc3n2C)c1Cl [Example 142] |
| 2 | Cn1c(Nc2c(Cl)ccc(CNC(=O)CC3CC3)c2Cl)nc2cc(C(=O)Nc3ccc(F)c(Cl)c3)c(OCC(F)F)cc21 [Example 144] |
| 7 | Cn1c(Nc2c(Cl)ccc(CNC(=O)C3(C#N)CC3)c2Cl)nc2cc(C(=O)Nc3ccc(F)c(Cl)c3)c(OCC(F)F)cc21 [Example 145] |
| 2 | CCC(=O)NCc1ccc(Cl)c(Nc2nc3cc(C(=O)Nc4ccc(F)c(Cl)c4)c(OCC(F)F)cc3n2C)c1Cl [Example 146] |
| 4 | CC(O)C(=O)NCc1ccc(Cl)c(Nc2nc3cc(C(=O)Nc4ccc(F)c(Cl)c4)c(OCC(F)F)cc3n2C)c1Cl (stereo not drawn) [Example 147] |
| 2 | Cn1c(Nc2c(Cl)ccc(CNC(=O)C3CC3)c2Cl)nc2cc(C(=O)Nc3ccc(F)c(Cl)c3)c(OCC(F)F)cc21 [Example 148] |
| 1 | Cn1c(Nc2c(Cl)ccc(CNC(=O)C(C)(O)C(F)(F)F)c2Cl)nc2cc(C(=O)Nc3ccc(F)c(Cl)c3)c(OCC(F)F)cc21 (stereo not drawn) [Example 149] |
| 1 | Cn1c(Nc2c(Cl)ccc(CNC(=O)C3(C)COC3)c2Cl)nc2cc(C(=O)Nc3ccc(F)c(Cl)c3)c(OCC(F)F)cc21 [Example 150] |
| 1 | CC(C)C(=O)NCc1ccc(Cl)c(Nc2nc3cc(C(=O)Nc4ccc(F)c(Cl)c4)c(OCC(F)F)cc3n2C)c1Cl [Example 151] |
| < 1 | Cn1c(Nc2c(Cl)ccc(CNC(=O)C(C)(N)C(F)(F)F)c2Cl)nc2cc(C(=O)Nc3ccc(F)c(Cl)c3)c(OCC(F)F)cc21 (stereo not drawn) [Example 152] |
| 3 | Cn1c(Nc2c(Cl)ccc(CNC(=O)C3CC3(F)F)c2Cl)nc2cc(C(=O)Nc3ccc(F)c(Cl)c3)c(OCC(F)F)cc21 (stereo not drawn) [Example 153] |
| 36 | Cn1c(Nc2c(Cl)ccc(CNC(=O)CC#N)c2Cl)nc2cc(C(=O)Nc3ccc(F)c(Cl)c3)c(OCC(F)F)cc21 [Example 154] |
| 2 | Cn1c(Nc2c(Cl)ccc(CNC(=O)C(C)(C)CO)c2Cl)nc2cc(C(=O)Nc3ccc(F)c(Cl)c3)c(OCC(F)F)cc21 [Example 155] |
| 10 | Cn1ccnc1C(=O)NCc1ccc(Cl)c(Nc2nc3cc(C(=O)Nc4ccc(F)c(Cl)c4)c(OCC(F)F)cc3n2C)c1Cl [Example 156] |
| < 1 | Cn1c(Nc2c(Cl)ccc(CNC(=O)c3c(F)cccc3Cl)c2Cl)nc2cc(C(=O)Nc3ccc(F)c(Cl)c3)c(OCC(F)F)cc21 [Example 158] |

The remaining lines, values behind:

| SMILES | IC50 [nM] |
| --- | --- |
| Cn1c(Nc2c(Cl)ccc(CNC(=O)C(C)(C)C)c2Cl)nc2cc(C(=O)Nc3ccc(Br)cc3)c(F)cc21 [Example 7] | 1 |
| CC(C)(C)C(=O)NCc1ccc(F)c(Nc2nc3cc(C(=O)Nc4ccc(Br)cc4)c(OCC(F)F)cc3n2C2CC2)c1F [Example 11] | 4 |
| Cn1c(Nc2c(Cl)ccc(CNC(=O)C(C)(C)C)c2Cl)nc2cc(C(=O)Nc3cccc(C#N)c3)c(OCC(F)F)cc21 [Example 28] | 1 |
| CC(C)(C)C(=O)NCc1ccc(Cl)c(Nc2nc3cc(OC(F)F)c(C(=O)N[C@H]4CC[C@H](C(F)(F)F)CC4)cc3[nH]2)c1Cl [Example 78] | 8 |
| CC(C)(C)C(=O)NCc1ccc(Cl)c(Nc2nc3c(F)c(OCC(F)(F)F)c(C(=O)N[C@H]4CC[C@H](C(F)(F)F)CC4)cc3[nH]2)c1Cl [Example 79] | 1 |
| Cn1c(Nc2c(Cl)ccc(CNC(=O)C(C)(C)F)c2Cl)nc2cc(C(=O)Nc3ccc(F)c(Cl)c3)c(OCC(F)F)cc21 [Example 84, N-(3-Chloro-4-fluoro-phenyl)-2-{2,6-dichloro-3-[(2-fluoro-2-methyl-propionylamino)-methyl]-phenylamino}-6-(2,2-difluoroethoxy)-1-methyl-1H-benzimidazole-5-carboxylic acid amide] | < 1 |
| Cn1c(Nc2c(Cl)ccc(CNC(=O)C3(C(F)(F)F)CCC3)c2Cl)nc2cc(C(=O)NCC(F)(F)F)c(OCC(F)F)cc21 [Example 86] | < 1 |
| Cn1c(Nc2c(Cl)ccc(CNC(=O)C(N)C(F)(F)F)c2Cl)nc2cc(C(=O)NCC(F)(F)F)c(OCC(F)F)cc21 (stereo not drawn) [Example 87] | 221 |
| Cn1c(Nc2c(Cl)ccc(CNC(=O)CC3CC3)c2Cl)nc2cc(C(=O)NCC(F)(F)F)c(OCC(F)F)cc21 [Example 88] | 68 |
| Cn1c(Nc2c(Cl)ccc(CNC(=O)C3CCCO3)c2Cl)nc2cc(C(=O)NCC(F)(F)F)c(OCC(F)F)cc21 (stereo not drawn) [Example 90] | 36 |
| Cn1c(Nc2c(Cl)ccc(CNC(=O)C3CCC3)c2Cl)nc2cc(C(=O)NCC(F)(F)F)c(OCC(F)F)cc21 [Example 91] | 10 |
| Cn1c(Nc2c(Cl)ccc(CNC(=O)c3ccc(Cl)s3)c2Cl)nc2cc(C(=O)NCC(F)(F)F)c(OCC(F)F)cc21 [Example 92] | 9 |
| Cn1c(Nc2c(Cl)ccc(CNC(=O)C3(O)CC3)c2Cl)nc2cc(C(=O)NCC(F)(F)F)c(OCC(F)F)cc21 [Example 93] | 66 |
| Cn1c(Nc2c(Cl)ccc(CNC(=O)C(C)(F)F)c2Cl)nc2cc(C(=O)NCC(F)(F)F)c(OCC(F)F)cc21 [Example 95] | 13 |
| Cn1c(Nc2c(Cl)ccc(CNC(=O)C(O)C(F)(F)F)c2Cl)nc2cc(C(=O)NCC(F)(F)F)c(OCC(F)F)cc21 (stereo not drawn) [Example 96] | 14 |
| Cn1c(Nc2c(Cl)ccc(CNC(=O)C(C)(N)C(F)(F)F)c2Cl)nc2cc(C(=O)NCC(F)(F)F)c(OCC(F)F)cc21 (stereo not drawn) [Example 98] | 2 |
| Cn1c(Nc2c(Cl)ccc(CNC(=O)C3CC3)c2Cl)nc2cc(C(=O)NCC(F)(F)F)c(OCC(F)F)cc21 [Example 100] | 52 |
| COCC(=O)NCc1ccc(Cl)c(Nc2nc3cc(C(=O)NCC(F)(F)F)c(OCC(F)F)cc3n2C)c1Cl [Example 101] | 11 |
| Cn1c(Nc2c(Cl)ccc(CNC(=O)C3CC(F)(F)C3)c2Cl)nc2cc(C(=O)NCC(F)(F)F)c(OCC(F)F)cc21 [Example 102] | 15 |
| Cn1c(Nc2c(Cl)ccc(CNC(=O)C3(C)CC3)c2Cl)nc2cc(C(=O)NCC(F)(F)F)c(OCC(F)F)cc21 [Example 103] | 18 |
| Cn1c(Nc2c(Cl)ccc(CNC(=O)c3ccno3)c2Cl)nc2cc(C(=O)NCC(F)(F)F)c(OCC(F)F)cc21 [Example 107] | 106 |
| Cn1c(Nc2c(Cl)ccc(CNC(=O)C(C)(C)O)c2Cl)nc2cc(C(=O)NCC(F)(F)F)c(OCC(F)F)cc21 [Example 108] | 59 |
| C[C@H](O)C(=O)NCc1ccc(Cl)c(Nc2nc3cc(C(=O)NCC(F)(F)F)c(OCC(F)F)cc3n2C)c1Cl [Example 109] | 57 |
| CC(C)C(=O)NCc1ccc(Cl)c(Nc2nc3cc(C(=O)NCC(F)(F)F)c(OCC(F)F)cc3n2C)c1Cl [Example 110] | 8 |
| CCC(=O)NCc1ccc(Cl)c(Nc2nc3cc(C(=O)NCC(F)(F)F)c(OCC(F)F)cc3n2C)c1Cl [Example 111] | 7 |
| Cn1c(Nc2c(Cl)ccc(CNC(=O)CC#N)c2Cl)nc2cc(C(=O)NCC(F)(F)F)c(OCC(F)F)cc21 [Example 112] | 19 |
| Cn1c(Nc2c(Cl)ccc(CNC(=O)C3(C#N)CC3)c2Cl)nc2cc(C(=O)NCC(F)(F)F)c(OCC(F)F)cc21 [Example 113] | 25 |
| CC(=O)NCc1ccc(Cl)c(Nc2nc3cc(C(=O)NCC(F)(F)F)c(OCC(F)F)cc3n2C)c1Cl [Example 115] | 300 |
| Cn1c(Nc2c(Cl)ccc(CNC(=O)C(C)(C)CO)c2Cl)nc2cc(C(=O)NCC(F)(F)F)c(OCC(F)F)cc21 [Example 126] | 72 |
| Cn1c(Nc2c(Cl)ccc(CNC(=O)c3cc[nH]n3)c2Cl)nc2cc(C(=O)NCC(F)(F)F)c(OCC(F)F)cc21 [Example 127] | 85 |
